Assay results: patent publication US20260114446A1, “Compositions, Methods and Devices for Control and Monitoring Insects” (Agriculture Victoria Services Pty Ltd, priority 2023, published 2026)

Tests used:
Format in all cases: in vivo
Carpophilus truncatus [1] = assay: Field experiment of pheromone lure septa in an almond orchard (Example 3), C. truncatus catches; conditions: septa in bucket traps with co-attractant solution (45% ethanol, isopentyl alcohol) and Dichlorvos strip; 10 replicates; 6 weeks, samples fortnightly; p<0.001
Method: A field experiment was designed to test the attractancy of the previously described C. truncatus Pheromone 2 under field conditions and the pheromonal (attractant) activity of newly identified Pheromone 3. […] All pheromones were tested together with a co-attractant mixture in the form of an aqueous ethanol and isopentyl alcohol solution, which acts synergistically to elicit a strong behavioural response in C. truncatus.
Pheromone test lures were loaded on white Precision Seal® rubber septa (8 mm OD, Sigma Aldrich product code: Z553913) with butylated hydroxytoluene used an antioxidant. The quantities of individual compounds applied on the septa were determined by SPME-GC-MS analyses of test septa at days 1 and 3 to produce the two pheromones in approximately equal ratios. The quantity of antioxidant was chosen based on the existing literature as 10% of the ratio of the dominant pheromone (Table 2). Hexane dilutions of the neat pheromones were prepared, and desired quantities loaded onto the septa. […]
The field trial was carried out from December 2021 in a commercial almond orchard located near Mildura, Victoria, Australia. […] Beetles present in different traps were identified and counted under a stereomicroscope. […]
Field data were analysed using a Generalized Linear Mixed Model (GLMM) fitted with a negative binomial distribution using the glmmTMB package (Brooks et al. 2019). […]

Carpophilus truncatus [2] = assay: Two-week field trial of lure treatments (Example 4), C. truncatus catches; conditions: 20 repeats per treatment, with co-attractant, high beetle populations
Method: (§1) A short trial was carried out over two weeks. Treatments were randomised and replicated in 10 tree rows with approximately 50 m spacing between traps (10 rows×2 treatments—20 repeats per treatment; 3 treatments of 20 repeats is 60 traps used). The treatments are shown in Table 3: Data was analysed in a similar way to Example 3 using GLMM with trap catches as response variable, lure treatment as fixed factor and row and column as random (spatial features). Turkey's adjusted post hoc tests for multiple comparisons of a family of three estimates. The results of the mixed model are: Wald χ2=[…], p=2.64 10^−14.

[3] = system: other Carpophilus species; assay: Two-week field trial of lure treatments (Example 4), catches of other Carpophilus species; conditions: 20 repeats per treatment, with co-attractant
Method: as §1

Row | Structure (SMILES) | C. truncatus beetle catches (Carpophilus truncatus [1]) | C. truncatus beetles caught (Carpophilus truncatus [2]) | Other Carpophilus species beetles caught [3]
1 | C/C=C(C)/C=C(C)/C=C(C)/C=C/CC [Phero 2, (E,E,E,E)-3,5,7-trimethyl-2,4,6,8-undecatetraene] | caught significantly more beetles than the commercial tri-species septa |  | 
2 | CCCCCCCCCCCCCC=O [Phero 3, tetradecanal] |  | caught significantly less C. truncatus and other Carpophilus species beetles than Phero 2 and Phero 2+Phero 3 | caught significantly less C. truncatus and other Carpophilus species beetles than Phero 2 and Phero 2+Phero 3
